# Entries after “also recorded” stand apart in the source; their conditions may differ.
# Biological target: T1, hM4DREADD in Tac2+ neurons (Homo sapiens, UniProt P08173, A203G/Y113C)
# T1 construct: host or cells: Tac2+ neurons of Tac2-Cre mice (dBNSTa, DMH or CeA), transduced in vivo with AAV2-EF1a-DIO-hM4D-mCherry
# T1 sequence (P08173 1-479 Y113C/A203G): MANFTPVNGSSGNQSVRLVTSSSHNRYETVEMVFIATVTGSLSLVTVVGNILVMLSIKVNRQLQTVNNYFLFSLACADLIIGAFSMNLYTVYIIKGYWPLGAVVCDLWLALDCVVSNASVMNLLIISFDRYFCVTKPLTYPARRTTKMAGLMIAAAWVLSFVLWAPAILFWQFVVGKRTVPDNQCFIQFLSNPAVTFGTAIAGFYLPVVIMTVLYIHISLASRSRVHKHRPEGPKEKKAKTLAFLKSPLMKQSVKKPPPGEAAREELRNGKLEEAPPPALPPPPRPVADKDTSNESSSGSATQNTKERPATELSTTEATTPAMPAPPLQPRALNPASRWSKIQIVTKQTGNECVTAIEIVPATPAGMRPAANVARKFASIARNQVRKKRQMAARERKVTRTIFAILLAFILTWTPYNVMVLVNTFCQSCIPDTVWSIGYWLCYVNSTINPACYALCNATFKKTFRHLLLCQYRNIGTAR
# Experiment: Resident intruder assay, CNO silencing of Tac2+ neurons (hM4DREADD)
# Type: in vivo, mouse
# Conditions: SIS Tac2-Cre mice, hM4DREADD in DMH; CNO 5 mg/kg i.p.
# Method: Testing for aggression using the resident intruder assay (Blanchard et al., 2003; incorporated by reference in its entirety) was performed as previously described (Hong et al., 2015; Hong et al., 2014; Lee et al., 2014; incorporated by reference in their entirety). Briefly, experimental mice (“residents”) were transported in their homecage to a novel behavior testing room (cagemates in group housed mice were removed from the homecage prior to transport for this and all other behavioral tests), where they acclimated for 5-15 minutes. Homecages were then slotted into a customized behavioral chamber lit with a surround panel of infrared lights and equipped with two synchronized infrared video cameras (Pointgrey) placed at 90-degree angles from each other to allow for simultaneous behavior recording with a front and top view. Synchronized video was acquired using Hunter 4.0 software (custom, Pietro Perona lab, Caltech). […] Fighting bouts were scored on a frame-by-frame basis and were defined as a frame during which the resident male was engaged in an episode of biting or intense aggressive behavior immediately surrounding a biting episode. Annotation files were then batch analyzed for behavior, including number of fighting bouts, using in-house customized programs in MATLAB (A. Kennedy, Caltech). […]
structure (smiles),measurement,value
"C[N+]1([O-])CCN(C2=Nc3cc(Cl)ccc3Nc3ccccc32)CC1 [CNO, clozapine-N-oxide]",aggression,blocked; also recorded: inhibited

# — patent US12083109B2, “Neurokinin antagonists and uses thereof” (California Institute of Technology, priority 2017, dated 2024)
